Assay results reported in the NIST ThermoML archive (doi:10.1016/j.jct.2003.09.013).
Where “and” joins values, the source holds several entries; their conditions need not be identical. Equal entries are not always repeated.

Assay: mn = molality of the nth substance listed, in mol/kg
Details: 350 kPa, Liquid; for molar volume: Vibrating tube method; for apparent molar heat capacity: Extra sensitive DSC

O=[N+]([O-])[O-].O=[N+]([O-])[O-].[Pb+2] [lead(II) nitrate] + O
Details	apparent molar heat capacity [J/K/mol]	apparent molar volume	molar volume
278.15 K, m1 = 0.01959	–	3.11e-05 m3/mol	3.11e-05 m3/mol
278.15 K, m1 = 0.01983	–	3.8e-05 m3/mol	3.8e-05 m3/mol
278.15 K, m1 = 0.02999	–	3.7e-05 m3/mol and 3.36e-05 m3/mol	3.7e-05 m3/mol and 3.36e-05 m3/mol
278.15 K, m1 = 0.04862	–	3.8e-05 m3/mol	3.8e-05 m3/mol
278.15 K, m1 = 0.05035	–	3.73e-05 m3/mol	3.73e-05 m3/mol
278.15 K, m1 = 0.1004	–	3.52e-05 m3/mol and 4.01e-05 m3/mol	4.01e-05 m3/mol and 3.52e-05 m3/mol
278.15 K, m1 = 0.2435	–	3.781e-05 m3/mol	3.781e-05 m3/mol
278.15 K, m1 = 0.392	–	3.95e-05 m3/mol	3.95e-05 m3/mol
278.15 K, m1 = 0.4885	–	4.08e-05 m3/mol	4.08e-05 m3/mol
283.15 K, m1 = 0.01959	–	3.4e-05 m3/mol	3.4e-05 m3/mol
283.15 K, m1 = 0.01983	–	3.8e-05 m3/mol	3.8e-05 m3/mol
283.15 K, m1 = 0.02999	–	3.9e-05 m3/mol and 3.62e-05 m3/mol	3.9e-05 m3/mol and 3.62e-05 m3/mol
283.15 K, m1 = 0.04862	–	3.9e-05 m3/mol	3.9e-05 m3/mol
283.15 K, m1 = 0.05035	–	3.93e-05 m3/mol	3.93e-05 m3/mol
283.15 K, m1 = 0.1004	–	4.14e-05 m3/mol and 3.73e-05 m3/mol	4.14e-05 m3/mol and 3.73e-05 m3/mol
283.15 K, m1 = 0.2435	–	3.976e-05 m3/mol	3.976e-05 m3/mol
283.15 K, m1 = 0.392	–	4.126e-05 m3/mol	4.126e-05 m3/mol
283.15 K, m1 = 0.4885	4.5	4.243e-05 m3/mol	4.243e-05 m3/mol
288.15 K, m1 = 0.01959	–	3.508e-05 m3/mol	3.508e-05 m3/mol
288.15 K, m1 = 0.01983	–	3.8e-05 m3/mol	3.8e-05 m3/mol
288.15 K, m1 = 0.02999	–	3.9e-05 m3/mol and 3.71e-05 m3/mol	3.9e-05 m3/mol and 3.71e-05 m3/mol
288.15 K, m1 = 0.04862	–	3.96e-05 m3/mol	3.96e-05 m3/mol
288.15 K, m1 = 0.05035	–	4.05e-05 m3/mol	4.05e-05 m3/mol
288.15 K, m1 = 0.1004	–	4.12e-05 m3/mol and 3.851e-05 m3/mol	4.12e-05 m3/mol and 3.851e-05 m3/mol
288.15 K, m1 = 0.2435	–	4.073e-05 m3/mol	4.073e-05 m3/mol
288.15 K, m1 = 0.392	–	4.246e-05 m3/mol	4.246e-05 m3/mol
288.15 K, m1 = 0.4885	12.8	4.323e-05 m3/mol	4.323e-05 m3/mol
293.15 K, m1 = 0.4885	18.6	–	–
298.15 K, m1 = 0.01959	–	3.86e-05 m3/mol	3.86e-05 m3/mol
298.15 K, m1 = 0.01983	–	4.1e-05 m3/mol	4.1e-05 m3/mol
298.15 K, m1 = 0.02999	–	4.19e-05 m3/mol and 3.835e-05 m3/mol	4.19e-05 m3/mol and 3.835e-05 m3/mol
298.15 K, m1 = 0.04862	–	4.22e-05 m3/mol	4.22e-05 m3/mol
298.15 K, m1 = 0.05035	–	4.377e-05 m3/mol	4.377e-05 m3/mol
298.15 K, m1 = 0.1004	–	4.33e-05 m3/mol and 4.134e-05 m3/mol	4.33e-05 m3/mol and 4.134e-05 m3/mol
298.15 K, m1 = 0.2435	–	4.368e-05 m3/mol	4.368e-05 m3/mol
298.15 K, m1 = 0.392	2.9	4.54e-05 m3/mol	4.54e-05 m3/mol
298.15 K, m1 = 0.4885	22.3	4.567e-05 m3/mol	4.567e-05 m3/mol
303.15 K, m1 = 0.392	6	–	–
303.15 K, m1 = 0.4885	24.9	–	–
308.15 K, m1 = 0.01959	–	4.027e-05 m3/mol	4.027e-05 m3/mol
308.15 K, m1 = 0.01983	–	4.04e-05 m3/mol	4.04e-05 m3/mol
308.15 K, m1 = 0.02999	–	4.2e-05 m3/mol and 3.7e-05 m3/mol	4.2e-05 m3/mol and 3.7e-05 m3/mol
308.15 K, m1 = 0.04862	–	4.27e-05 m3/mol	4.27e-05 m3/mol
308.15 K, m1 = 0.05035	–	4.631e-05 m3/mol	4.631e-05 m3/mol
308.15 K, m1 = 0.1004	–	4.39e-05 m3/mol and 4.262e-05 m3/mol	4.39e-05 m3/mol and 4.262e-05 m3/mol
308.15 K, m1 = 0.2435	–	4.56e-05 m3/mol	4.56e-05 m3/mol
308.15 K, m1 = 0.392	8.2	4.698e-05 m3/mol	4.698e-05 m3/mol
308.15 K, m1 = 0.4885	26.6	4.739e-05 m3/mol	4.739e-05 m3/mol
313.15 K, m1 = 0.392	9.6	–	–
313.15 K, m1 = 0.4885	27.7	–	–
318.15 K, m1 = 0.01959	–	4.413e-05 m3/mol	4.413e-05 m3/mol
318.15 K, m1 = 0.01983	–	4.13e-05 m3/mol	4.13e-05 m3/mol
318.15 K, m1 = 0.02999	–	4.23e-05 m3/mol and 3.71e-05 m3/mol	4.23e-05 m3/mol and 3.71e-05 m3/mol
318.15 K, m1 = 0.04862	–	4.32e-05 m3/mol	4.32e-05 m3/mol
318.15 K, m1 = 0.05035	–	4.763e-05 m3/mol	4.763e-05 m3/mol
318.15 K, m1 = 0.1004	–	4.49e-05 m3/mol and 4.36e-05 m3/mol	4.49e-05 m3/mol and 4.36e-05 m3/mol
318.15 K, m1 = 0.2435	–	4.709e-05 m3/mol	4.709e-05 m3/mol
318.15 K, m1 = 0.392	10.3	4.824e-05 m3/mol	4.824e-05 m3/mol
318.15 K, m1 = 0.4885	27.8	4.881e-05 m3/mol	4.881e-05 m3/mol
323.15 K, m1 = 0.392	10.5	–	–
323.15 K, m1 = 0.4885	27.8	–	–
328.15 K, m1 = 0.01959	–	4.522e-05 m3/mol	4.522e-05 m3/mol
328.15 K, m1 = 0.01983	–	4.163e-05 m3/mol	4.163e-05 m3/mol
328.15 K, m1 = 0.02999	–	4.215e-05 m3/mol and 3.58e-05 m3/mol	4.215e-05 m3/mol and 3.58e-05 m3/mol
328.15 K, m1 = 0.04862	–	4.365e-05 m3/mol	4.365e-05 m3/mol
328.15 K, m1 = 0.05035	–	4.871e-05 m3/mol	4.871e-05 m3/mol
328.15 K, m1 = 0.1004	–	4.523e-05 m3/mol and 4.39e-05 m3/mol	4.523e-05 m3/mol and 4.39e-05 m3/mol
328.15 K, m1 = 0.2435	–	4.806e-05 m3/mol	4.806e-05 m3/mol
328.15 K, m1 = 0.392	10.3	4.911e-05 m3/mol	4.911e-05 m3/mol
328.15 K, m1 = 0.4885	27.3	4.978e-05 m3/mol	4.978e-05 m3/mol
333.15 K, m1 = 0.392	10	–	–
333.15 K, m1 = 0.4885	26.8	–	–
338.15 K, m1 = 0.01959	–	4.5e-05 m3/mol	4.5e-05 m3/mol
338.15 K, m1 = 0.01983	–	4.114e-05 m3/mol	4.114e-05 m3/mol
338.15 K, m1 = 0.02999	–	4.265e-05 m3/mol and 3.58e-05 m3/mol	4.265e-05 m3/mol and 3.58e-05 m3/mol
338.15 K, m1 = 0.04862	–	4.42e-05 m3/mol	4.42e-05 m3/mol
338.15 K, m1 = 0.05035	–	4.942e-05 m3/mol	4.942e-05 m3/mol
338.15 K, m1 = 0.1004	–	4.599e-05 m3/mol and 4.45e-05 m3/mol	4.599e-05 m3/mol and 4.45e-05 m3/mol
338.15 K, m1 = 0.2435	–	4.89e-05 m3/mol	4.89e-05 m3/mol
338.15 K, m1 = 0.392	9.1	4.981e-05 m3/mol	4.981e-05 m3/mol
338.15 K, m1 = 0.4885	25.9	5.059e-05 m3/mol	5.059e-05 m3/mol
343.15 K, m1 = 0.392	8	–	–
343.15 K, m1 = 0.4885	24.7	–	–
348.15 K, m1 = 0.01959	–	4.33e-05 m3/mol	4.33e-05 m3/mol
348.15 K, m1 = 0.02999	–	3.57e-05 m3/mol	3.57e-05 m3/mol
348.15 K, m1 = 0.05035	–	4.93e-05 m3/mol	4.93e-05 m3/mol
348.15 K, m1 = 0.1004	–	4.662e-05 m3/mol and 4.47e-05 m3/mol	4.662e-05 m3/mol and 4.47e-05 m3/mol
348.15 K, m1 = 0.2435	–	4.92e-05 m3/mol	4.92e-05 m3/mol
348.15 K, m1 = 0.392	6.7	5.034e-05 m3/mol	5.034e-05 m3/mol
348.15 K, m1 = 0.4885	23.3	5.112e-05 m3/mol	5.112e-05 m3/mol
353.15 K, m1 = 0.392	5.2	–	–
353.15 K, m1 = 0.4885	22	–	–
358.15 K, m1 = 0.01959	–	4.397e-05 m3/mol	4.397e-05 m3/mol
358.15 K, m1 = 0.02999	–	3.55e-05 m3/mol	3.55e-05 m3/mol
358.15 K, m1 = 0.05035	–	4.866e-05 m3/mol	4.866e-05 m3/mol
358.15 K, m1 = 0.1004	–	4.48e-05 m3/mol and 4.513e-05 m3/mol	4.48e-05 m3/mol and 4.513e-05 m3/mol
358.15 K, m1 = 0.2435	–	4.929e-05 m3/mol	4.929e-05 m3/mol
358.15 K, m1 = 0.392	3.8	5.016e-05 m3/mol	5.016e-05 m3/mol
358.15 K, m1 = 0.4885	20.5	5.11e-05 m3/mol	5.11e-05 m3/mol
363.15 K, m1 = 0.392	2.1	–	–
363.15 K, m1 = 0.4885	18.8	–	–
368.15 K, m1 = 0.01959	–	4.451e-05 m3/mol	4.451e-05 m3/mol
368.15 K, m1 = 0.02999	–	3.49e-05 m3/mol	3.49e-05 m3/mol
368.15 K, m1 = 0.05035	–	4.751e-05 m3/mol	4.751e-05 m3/mol
368.15 K, m1 = 0.1004	–	4.02e-05 m3/mol and 4.44e-05 m3/mol	4.02e-05 m3/mol and 4.44e-05 m3/mol
368.15 K, m1 = 0.2435	–	4.902e-05 m3/mol	4.902e-05 m3/mol
368.15 K, m1 = 0.392	–	4.883e-05 m3/mol	4.883e-05 m3/mol
368.15 K, m1 = 0.4885	16.9	5.055e-05 m3/mol	5.055e-05 m3/mol
373.15 K, m1 = 0.4885	14.8	–	–
378.15 K, m1 = 0.4885	12.1	–	–
383.15 K, m1 = 0.4885	9.5	–	–
388.15 K, m1 = 0.4885	6.8	–	–
393.15 K, m1 = 0.4885	3.2	–	–
